In the assay the target is T1, Chk1 (Homo sapiens, UniProt O14757).
T1 construct: purchased Upstate Biotechnology
T1 sequence (O14757 1-476): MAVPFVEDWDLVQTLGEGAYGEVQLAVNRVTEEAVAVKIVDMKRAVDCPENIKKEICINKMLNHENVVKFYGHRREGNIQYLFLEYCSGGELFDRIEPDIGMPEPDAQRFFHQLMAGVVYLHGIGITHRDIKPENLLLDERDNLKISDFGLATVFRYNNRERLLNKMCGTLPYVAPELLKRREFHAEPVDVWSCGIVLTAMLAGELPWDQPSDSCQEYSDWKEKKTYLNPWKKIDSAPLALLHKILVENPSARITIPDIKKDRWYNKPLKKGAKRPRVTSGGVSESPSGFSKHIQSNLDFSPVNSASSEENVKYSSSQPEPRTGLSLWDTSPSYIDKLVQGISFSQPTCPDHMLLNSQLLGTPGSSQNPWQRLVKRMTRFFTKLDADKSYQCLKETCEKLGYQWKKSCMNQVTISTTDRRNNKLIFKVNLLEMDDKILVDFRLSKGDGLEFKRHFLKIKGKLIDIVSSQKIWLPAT
Kind of assay: Chk1 kinase assay: incorporation of γ-33P ATP into immobilized myelin basic protein. Format: biochemical. To be noted: Table 11, Chk1 only; class symbols A-D; read-out: Chk1 IC50. In outline:
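Enzyme activity is measured as γ-33P transfer from ATP onto immobilized MBP over 1 h at room temperature, with Chk1 at 10 nM/10 μM unlabeled ATP and Chk2 at 20 nM/30 μM unlabeled ATP. Compounds are tested in 1% DMSO.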

Molecules are shown by their SMILES. Where only a bound is given, the exact number is not on record here.

The IC50 is the point on the concentration scale where inhibition reaches its midpoint. As to `Nc1ncc(-c2cccc(CNC(=O)Nc3ccc(F)cc3F)c2)nc1C(=O)N[C@H]1CCCNC1` [Example 914, 3-amino-6-{3-[({[(2,4-difluorophenyl)amino]carbonyl}amino)methyl]phenyl}-N-[(3S)-piperidin-3-yl]pyrazine-2-carboxamide], the IC50 was less than 50 nM.
With `Nc1ncc(-c2cccc(CNS(=O)(=O)c3ccccc3C(F)(F)F)c2)nc1C(=O)N[C@H]1CCCNC1` [Example 915, 3-amino-N-[(3S)-piperidin-3-yl]-6-{3-[({[2-(trifluoromethyl)phenyl]sulfonyl}amino)methyl]phenyl}pyrazine-2-carboxamide] the figure was 50 to 1000 nM; with `Nc1ncc(-c2cccc(CNS(=O)(=O)c3ccc(OC(F)(F)F)cc3)c2)nc1C(=O)N[C@H]1CCCNC1` [Example 916, 3-amino-N-[(3S)-piperidin-3-yl]-6-(3-{[({4-[(trifluoromethyl)oxy]phenyl}sulfonyl)amino]methyl}phenyl)pyrazine-2-carboxamide], 50 to 1000 nM; with `Nc1ncc(-c2cccc(CNS(=O)(=O)c3ccccc3OC(F)(F)F)c2)nc1C(=O)N[C@H]1CCCNC1` [Example 917, 3-amino-N-[(3S)-piperidin-3-yl]-6-(3-{[({2-[(trifluoromethyl)oxy]phenyl}sulfonyl)amino]methyl}phenyl)pyrazine-2-carboxamide], 50 to 1000 nM.
The figure for `Nc1ncc(-c2cccc(CNS(=O)(=O)c3ccc(C(F)(F)F)cc3)c2)nc1C(=O)N[C@H]1CCCNC1` [Example 918, 3-amino-N-[(3S)-piperidin-3-yl]-6-{3-[({[4-(trifluoromethyl)phenyl]sulfonyl}amino)methyl]phenyl}pyrazine-2-carboxamide] is 50 to 1000 nM.
The figure for `Nc1ncc(-c2cccc(CNC(=O)Nc3ccccc3OC(F)(F)F)c2)nc1C(=O)N[C@H]1CCCNC1` [Example 919, 3-amino-N-[(3S)-piperidin-3-yl]-6-[3-({[({2-[(trifluoromethyl)oxy]phenyl}amino)carbonyl]amino}methyl)phenyl]pyrazine-2-carboxamide] is 50 to 1000 nM; for `CSc1ccccc1NC(=O)NCc1cccc(-c2cnc(N)c(C(=O)N[C@H]3CCCNC3)n2)c1` [Example 920, 3-amino-6-(3-{[({[2-(methylthio)phenyl]amino}carbonyl)amino]methyl}phenyl)-N-[(3S)-piperidin-3-yl]pyrazine-2-carboxamide] it is less than 50 nM; for `Cc1cc(Br)cc(NC(=O)NCc2cccc(-c3cnc(N)c(C(=O)N[C@H]4CCCNC4)n3)c2)c1` [Example 921, 3-amino-6-{3-[({[(3-bromo-5-methylphenyl)amino]carbonyl}amino)methyl]phenyl}-N-[(3S)-piperidin-3-yl]pyrazine-2-carboxamide] it is less than 50 nM.
For the molecule `Nc1ncc(-c2cccc(CNC(=O)Nc3ccccc3Br)c2)nc1C(=O)N[C@H]1CCCNC1` [Example 922, 3-amino-6-{3-[({[(2-bromophenyl)amino]carbonyl}amino)methyl]phenyl}-N-[(3S)-piperidin-3-yl]pyrazine-2-carboxamide], the half-inhibitory concentration (IC50) was less than 50 nM.
The figure for `NCc1cccc(-c2cnc(N)c(-c3nc([C@H]4CCCNC4)n[nH]3)n2)c1` [Example 923, 5-[3-(aminomethyl)phenyl]-3-{3-[(3S)-piperidin-3-yl]-1H-1,2,4-triazol-5-yl}pyrazin-2-amine] is less than 50 nM; for `CN1CCN(c2ccc(CNC(=O)c3cccc(-c4cnc(N)c(C(=O)N[C@H]5CCCNC5)n4)c3)cc2)CC1` [Example 924, 3-amino-6-{3-[({[4-(4-methylpiperazin-1-yl)phenyl]methyl}amino)carbonyl]phenyl}-N-[(3S)-piperidin-3-yl]pyrazine-2-carboxamide] it is less than 50 nM.
The figure for `Nc1ncc(-c2cccc(C(=O)NCCc3ccc(F)cc3)c2)nc1C(=O)N[C@H]1CCCNC1` [Example 925, 3-amino-6-[3-({[2-(4-fluorophenyl)ethyl]amino}carbonyl)phenyl]-N-[(3S)-piperidin-3-yl]pyrazine-2-carboxamide] is less than 50 nM; for `Nc1ncc(-c2cccc(C(=O)NCCN3CCOCC3)c2)nc1C(=O)N[C@H]1CCCNC1` [Example 926, 3-amino-6-(3-{[(2-morpholin-4-ylethyl)amino]carbonyl}phenyl)-N-[(3S)-piperidin-3-yl]pyrazine-2-carboxamide] it is 50 to 1000 nM.
With `Nc1ncc(-c2cccc(C(=O)NC[C@H]3CCCN3)c2)nc1C(=O)N[C@H]1CCCNC1` [Example 927, 3-amino-N-[(3S)-piperidin-3-yl]-6-[3-({[(2R)-pyrrolidin-2-ylmethyl]amino}carbonyl)phenyl]pyrazine-2-carboxamide] the figure was less than 50 nM; with `Nc1ncc(-c2cccc(C(=O)N[C@H]3CCCN3)c2)nc1C(=O)N[C@H]1CCCNC1` [Example 928, 3-amino-N-[(3S)-piperidin-3-yl]-6-(3-{[(2S)-pyrrolidin-2-ylamino]carbonyl}phenyl)pyrazine-2-carboxamide], less than 50 nM; with `Nc1ncc(-c2cccc(C(=O)NC3CCCC3)c2)nc1C(=O)N[C@H]1CCCNC1` [Example 929, 3-amino-6-{3-[(cyclopentylamino)carbonyl]phenyl}-N-[(3S)-piperidin-3-yl]pyrazine-2-carboxamide], 50 to 1000 nM.
`Nc1ncc(-c2cccc(CNC(=O)Nc3ccc(OC(F)(F)F)cc3)c2)nc1C(=O)N[C@H]1CCCNC1` [Example 930, 3-amino-N-[(3S)-piperidin-3-yl]-6-[3-({[({4-[(trifluoromethyl)oxy]phenyl}amino)carbonyl]amino}methyl)phenyl]pyrazine-2-carboxamide]: the 50% inhibitory concentration (IC50) is less than 50 nM.
The figure for `Nc1ncc(-c2cccc(CNC(=O)Nc3ccc(C(F)(F)F)cc3)c2)nc1C(=O)N[C@H]1CCCNC1` [Example 931, 3-amino-N-[(3S)-piperidin-3-yl]-6-(3-{[({[4-(trifluoromethyl)phenyl]amino}carbonyl)amino]methyl}phenyl)pyrazine-2-carboxamide] is less than 50 nM; for `COc1ccc(C(=O)NCc2cccc(-c3cnc(N)c(C(=O)N[C@H]4CCCNC4)n3)c2)cc1` [Example 932, 3-amino-6-{3-[({[4-(methyloxy)phenyl]carbonyl}amino)methyl]phenyl}-N-[(3S)-piperidin-3-yl]pyrazine-2-carboxamide] it is less than 50 nM; for `Nc1ncc(-c2cccc(CNC(=O)c3ccc(-c4ccccc4)cc3)c2)nc1C(=O)N[C@H]1CCCNC1` [Example 933, 3-amino-6-(3-{[(biphenyl-4-ylcarbonyl)amino]methyl}phenyl)-N-[(3S)-piperidin-3-yl]pyrazine-2-carboxamide] it is less than 50 nM.
The figure for `Nc1ncc(-c2cccc(CNC(=O)c3ccco3)c2)nc1C(=O)N[C@H]1CCCNC1` [Example 934, 3-amino-6-(3-{[(furan-2-ylcarbonyl)amino]methyl}phenyl)-N-[(3S)-piperidin-3-yl]pyrazine-2-carboxamide] is less than 50 nM.
With `Nc1ncc(-c2cccc(CNC(=O)Nc3ccc4c(c3)OCCO4)c2)nc1C(=O)N[C@H]1CCCNC1` [Example 935, 3-amino-6-[3-({[(2,3-dihydro-1,4-benzodioxin-6-ylamino)carbonyl]amino}methyl)phenyl]-N-[(3S)-piperidin-3-yl]pyrazine-2-carboxamide] the figure was less than 50 nM; with `Nc1ncc(-c2cccc(CNC(=O)c3ccc4c(c3)CCO4)c2)nc1C(=O)N[C@H]1CCCNC1` [Example 936, 3-amino-6-(3-{[(2,3-dihydro-1-benzofuran-5-ylcarbonyl)amino]methyl}phenyl)-N-[(3S)-piperidin-3-yl]pyrazine-2-carboxamide], less than 50 nM; with `Nc1ncc(-c2cccc(CNS(=O)(=O)c3ccc4c(c3)OCCO4)c2)nc1C(=O)N[C@H]1CCCNC1` [Example 937, 3-amino-6-(3-{[(2,3-dihydro-1,4-benzodioxin-6-ylsulfonyl)amino]methyl}phenyl)-N-[(3S)-piperidin-3-yl]pyrazine-2-carboxamide], less than 50 nM.
On to `Nc1ncc(-c2cccc(CNC(=O)c3cccs3)c2)nc1C(=O)N[C@H]1CCCNC1` [Example 938, 3-amino-N-[(3S)-piperidin-3-yl]-6-(3-{[(2-thienylcarbonyl)amino]methyl}phenyl)pyrazine-2-carboxamide], for which the IC50 is less than 50 nM.
With `Nc1ncc(-c2cccc(CNC(=O)C3COc4ccccc4O3)c2)nc1C(=O)N[C@H]1CCCNC1` (stereo partly drawn) [Example 939, 3-amino-6-(3-{[(2,3-dihydro-1,4-benzodioxin-2-ylcarbonyl)amino]methyl}phenyl)-N-[(3S)-piperidin-3-yl]pyrazine-2-carboxamide] the figure was less than 50 nM.
The figure for `Nc1ncc(-c2cccc(CNC(=O)c3ccccc3Cl)c2)nc1-c1nc([C@H]2CCCNC2)n[nH]1` [Example 940, N-{[3-(5-amino-6-{3-[(3S)-piperidin-3-yl]-1H-1,2,4-triazol-5-yl}pyrazin-2-yl)phenyl]methyl}-2-chlorobenzamide] is less than 50 nM.
With `Nc1ncc(-c2cccc(CNC(=O)c3ccc(Cl)cc3)c2)nc1-c1nc([C@H]2CCCNC2)n[nH]1` [Example 941, N-{[3-(5-amino-6-{3-[(3S)-piperidin-3-yl]-1H-1,2,4-triazol-5-yl}pyrazin-2-yl)phenyl]methyl}-4-chlorobenzamide] the figure was less than 50 nM.
